# Experimental data: patent publication US12522614B2, “Topical phosphoinositide 3-kinase inhibitors” (VENTHERA, INC., priority 2019, dated 2026)
# Tests used:
# [1] = Accelerated stability study of topical gel formulations at 80° C.; assay type: physicochemical; settings: gel formulation, 3 days
# [2] = as above; assay type: physicochemical; settings: for Stability in gel formulation: 80° C. for 10 days; for percent hydrolysis to the parent compound MTPP: gel formulation, 80° C.
# Procedure: Topical gel formulations were prepared using excipients as shown in Table 2 according to Example 8, in which Compounds 1.002, 1.012, and 1.006 were used as the active ingredient, respectively. These gel formulations were subjected to stability study at 80° C. for 10 days. Stability under the condition of at 80° C. for 10 days is expected to be approximately equivalent to the stability for three (3) years at room temperature. A relative purity of the tested compound after being exposed for 5 days and 10 days at 80° C. was determined by HPLC, as compared to its initial purity (at day 0).
# The values shown in the table are percent hydrolysis of the respective compounds to the parent compound MTPP.
# Topical gel formulations of Compound 1.002 were prepared using excipients as shown in Table 2 according to Example 8, in which the content of oleic acid varied at 1%, 2%, 5%, and 10%, respectively. These gel formulations were subjected to stability study at 80° C. for 10 days, which is expected to be approximately equivalent to the stability for three (3) years at room temperature. A purity of the tested compound on day 0, 5, 7, and 10 at 80° C. was determined by HPLC. The detected impurity of the tested compound appears to be the hydrolysis product, as MTPP. Table 17 represents stability data of Compound 1.002 in topical formulations having oleic acid at various contents.
# Gel formulations of Example 17 were subjected to stability study at 80° C. for 10 days. Stability under the condition of at 80° C. for 10 days is expected to be approximately equivalent to the stability for three (3) years at room temperature. A relative purity of Compound 1.002 after being exposed for 5 days and 10 days at 80° C. was determined by HPLC, as compared to its initial purity (at day 0).
# PI3K (p110a(E542K)/p85a) = target: T1, PI3K (p110a(E542K)/p85a) (Homo sapiens, UniProt P42336, E542K); test: Lipid kinase inhibitory activity, ADP-Glo; assay type: biochemical; settings: α E542K
# T1 construct: purchased Reaction Biology Corporation (RBC)
# T1 sequence (P42336 whole entry E542K): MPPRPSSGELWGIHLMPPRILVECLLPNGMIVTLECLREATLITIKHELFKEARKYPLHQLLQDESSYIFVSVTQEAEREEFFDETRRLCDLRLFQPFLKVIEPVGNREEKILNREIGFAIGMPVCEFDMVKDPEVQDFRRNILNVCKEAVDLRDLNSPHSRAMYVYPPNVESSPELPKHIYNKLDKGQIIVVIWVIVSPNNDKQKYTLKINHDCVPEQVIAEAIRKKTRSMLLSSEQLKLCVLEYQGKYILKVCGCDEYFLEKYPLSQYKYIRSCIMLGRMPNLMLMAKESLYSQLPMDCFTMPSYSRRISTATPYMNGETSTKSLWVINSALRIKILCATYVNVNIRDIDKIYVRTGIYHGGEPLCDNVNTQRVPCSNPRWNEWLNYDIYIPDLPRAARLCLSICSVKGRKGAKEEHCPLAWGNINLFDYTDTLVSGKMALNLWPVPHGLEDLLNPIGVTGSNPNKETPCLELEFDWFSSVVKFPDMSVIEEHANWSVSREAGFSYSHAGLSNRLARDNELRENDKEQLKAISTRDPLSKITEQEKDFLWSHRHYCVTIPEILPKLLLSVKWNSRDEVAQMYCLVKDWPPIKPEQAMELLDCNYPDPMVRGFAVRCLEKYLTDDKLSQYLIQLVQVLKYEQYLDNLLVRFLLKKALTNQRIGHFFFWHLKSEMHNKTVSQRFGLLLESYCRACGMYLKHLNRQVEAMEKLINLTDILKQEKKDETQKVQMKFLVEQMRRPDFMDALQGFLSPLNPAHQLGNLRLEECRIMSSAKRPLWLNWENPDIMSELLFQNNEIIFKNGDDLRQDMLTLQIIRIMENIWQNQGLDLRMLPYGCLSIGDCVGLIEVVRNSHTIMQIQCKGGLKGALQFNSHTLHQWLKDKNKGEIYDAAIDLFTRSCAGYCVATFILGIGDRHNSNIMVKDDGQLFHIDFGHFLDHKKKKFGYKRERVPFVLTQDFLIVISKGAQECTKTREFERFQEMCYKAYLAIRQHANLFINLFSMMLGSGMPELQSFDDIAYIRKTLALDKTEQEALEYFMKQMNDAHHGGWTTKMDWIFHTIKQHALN
# T1 sequence (P27986 whole entry partner): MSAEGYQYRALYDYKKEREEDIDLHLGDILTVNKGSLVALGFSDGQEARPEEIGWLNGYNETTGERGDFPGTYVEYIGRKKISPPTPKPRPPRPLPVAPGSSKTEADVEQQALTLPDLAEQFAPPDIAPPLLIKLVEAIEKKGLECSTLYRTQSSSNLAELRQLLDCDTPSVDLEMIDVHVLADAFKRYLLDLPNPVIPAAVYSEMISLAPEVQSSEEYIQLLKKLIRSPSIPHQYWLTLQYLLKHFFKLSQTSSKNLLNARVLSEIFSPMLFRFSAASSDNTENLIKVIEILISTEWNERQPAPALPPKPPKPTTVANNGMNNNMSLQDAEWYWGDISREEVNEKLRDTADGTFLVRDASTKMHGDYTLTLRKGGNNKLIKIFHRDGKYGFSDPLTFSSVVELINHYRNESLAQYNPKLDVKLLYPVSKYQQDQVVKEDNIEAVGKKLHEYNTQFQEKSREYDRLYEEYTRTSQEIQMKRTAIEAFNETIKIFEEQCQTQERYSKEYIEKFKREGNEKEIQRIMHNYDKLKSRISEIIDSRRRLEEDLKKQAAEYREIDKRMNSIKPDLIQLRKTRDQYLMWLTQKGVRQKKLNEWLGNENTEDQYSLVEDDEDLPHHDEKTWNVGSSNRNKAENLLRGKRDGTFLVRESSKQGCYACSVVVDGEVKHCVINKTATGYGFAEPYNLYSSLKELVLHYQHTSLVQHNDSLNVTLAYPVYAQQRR
# Procedure: (§1) Lipid kinases: Lipid kinases from Reaction Biology Corporation (RBC) in ADP-Glo format were used.
# (§2) Assay Description: The kinase reactions utilized ATP and produced ADP as a byproduct. The ADP production was quantified by ADP-Glo luminescence detection. This assay was a 3-step reaction. First, the kinase reaction with lipid substrate was carried out in the presence of ATP, and the reaction was quenched and depleted remaining ATP with ADP-Glo™ reagent, and then finally ADP was converted to ATP which was measured using a luciferase/luciferin reaction.
# (§3) Assay Procedure: The assay was performed according to the steps as follows: • 1. Preparing substrate in freshly prepared reaction buffer; • 2. Delivering kinase into the substrate solution and gently mixing; • 3. Delivering compounds in […] into the kinase reaction mixture by Acoustic technology (Echo550; nanoliter range), incubating for 20 minutes at room temperature; • 4. Delivering ATP into the reaction mixture to initiate the reaction; • 5. Incubating for 30 minutes at 30° C.; • 6. Quenching the reaction with ADP-Glo reagent and incubating for 40 minutes; • 7. Adding Detection Mixture and incubating for 30 minutes; and • 8. Measuring luminescence.
# (§4) Data Analysis: The luminescence was converted into μM ADP production based on ADP standard curves. The nonlinear regression to obtain the standard curve and IC50 values were performed using Graphpad Prism software.
# [3] = target: T2, PI3K (p110a(H1047R)/p85a) (Homo sapiens, UniProt P42336, H1047R); test: Lipid kinase inhibitory activity, ADP-Glo; assay type: biochemical; settings: α H1047R
# T2 construct: purchased Reaction Biology Corporation (RBC)
# T2 sequence (P42336 whole entry H1047R): as the sequence (P42336 whole entry E542K) above, with K542E, H1047R counted along it
# T2 sequence (P27986 whole entry partner): as the sequence (P27986 whole entry partner) above
# Procedure: as §1, §2, §3, §4
# PI3Kd (p110d/p85a) = target: T3, PI3Kd (p110d/p85a) (Homo sapiens, UniProt O00329); test: Lipid kinase inhibitory activity, ADP-Glo; assay type: biochemical; settings: δ
# T3 construct: purchased Reaction Biology Corporation (RBC)
# T3 sequence (O00329 whole entry): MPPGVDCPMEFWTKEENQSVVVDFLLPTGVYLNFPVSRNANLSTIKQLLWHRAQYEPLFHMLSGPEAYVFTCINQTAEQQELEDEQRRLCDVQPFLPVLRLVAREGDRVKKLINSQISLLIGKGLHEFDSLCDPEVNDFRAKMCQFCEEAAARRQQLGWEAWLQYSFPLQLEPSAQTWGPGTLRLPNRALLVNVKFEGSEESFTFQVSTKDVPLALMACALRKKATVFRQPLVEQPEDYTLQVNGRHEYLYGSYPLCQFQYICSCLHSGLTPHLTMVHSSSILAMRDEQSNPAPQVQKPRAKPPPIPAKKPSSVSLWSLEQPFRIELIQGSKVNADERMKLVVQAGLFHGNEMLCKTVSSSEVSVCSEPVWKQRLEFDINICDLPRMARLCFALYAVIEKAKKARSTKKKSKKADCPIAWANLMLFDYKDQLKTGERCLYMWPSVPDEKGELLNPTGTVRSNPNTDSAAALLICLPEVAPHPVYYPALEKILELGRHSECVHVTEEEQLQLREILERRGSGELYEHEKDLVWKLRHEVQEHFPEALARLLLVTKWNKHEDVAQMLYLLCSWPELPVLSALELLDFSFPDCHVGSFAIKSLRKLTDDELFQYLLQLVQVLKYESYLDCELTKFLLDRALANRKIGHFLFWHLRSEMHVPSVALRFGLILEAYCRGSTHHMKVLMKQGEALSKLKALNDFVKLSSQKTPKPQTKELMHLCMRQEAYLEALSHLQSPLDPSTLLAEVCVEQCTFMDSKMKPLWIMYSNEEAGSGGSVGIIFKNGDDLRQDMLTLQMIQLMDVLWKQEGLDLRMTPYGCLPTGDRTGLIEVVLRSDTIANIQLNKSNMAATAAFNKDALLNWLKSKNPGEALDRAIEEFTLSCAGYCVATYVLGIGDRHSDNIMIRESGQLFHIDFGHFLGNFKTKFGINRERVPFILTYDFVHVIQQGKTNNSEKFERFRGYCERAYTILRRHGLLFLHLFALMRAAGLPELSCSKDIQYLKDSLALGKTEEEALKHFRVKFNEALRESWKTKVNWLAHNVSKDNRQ
# T3 sequence (P27986 whole entry partner): as the sequence (P27986 whole entry partner) above
# Procedure: as §1, §2, §3, §4
# PI3Kg (p110g) = target: T4, PI3Kg (p110g) (Homo sapiens, UniProt P48736); test: Lipid kinase inhibitory activity, ADP-Glo; assay type: biochemical; settings: γ
# T4 construct: purchased Reaction Biology Corporation (RBC)
# T4 sequence (P48736 whole entry): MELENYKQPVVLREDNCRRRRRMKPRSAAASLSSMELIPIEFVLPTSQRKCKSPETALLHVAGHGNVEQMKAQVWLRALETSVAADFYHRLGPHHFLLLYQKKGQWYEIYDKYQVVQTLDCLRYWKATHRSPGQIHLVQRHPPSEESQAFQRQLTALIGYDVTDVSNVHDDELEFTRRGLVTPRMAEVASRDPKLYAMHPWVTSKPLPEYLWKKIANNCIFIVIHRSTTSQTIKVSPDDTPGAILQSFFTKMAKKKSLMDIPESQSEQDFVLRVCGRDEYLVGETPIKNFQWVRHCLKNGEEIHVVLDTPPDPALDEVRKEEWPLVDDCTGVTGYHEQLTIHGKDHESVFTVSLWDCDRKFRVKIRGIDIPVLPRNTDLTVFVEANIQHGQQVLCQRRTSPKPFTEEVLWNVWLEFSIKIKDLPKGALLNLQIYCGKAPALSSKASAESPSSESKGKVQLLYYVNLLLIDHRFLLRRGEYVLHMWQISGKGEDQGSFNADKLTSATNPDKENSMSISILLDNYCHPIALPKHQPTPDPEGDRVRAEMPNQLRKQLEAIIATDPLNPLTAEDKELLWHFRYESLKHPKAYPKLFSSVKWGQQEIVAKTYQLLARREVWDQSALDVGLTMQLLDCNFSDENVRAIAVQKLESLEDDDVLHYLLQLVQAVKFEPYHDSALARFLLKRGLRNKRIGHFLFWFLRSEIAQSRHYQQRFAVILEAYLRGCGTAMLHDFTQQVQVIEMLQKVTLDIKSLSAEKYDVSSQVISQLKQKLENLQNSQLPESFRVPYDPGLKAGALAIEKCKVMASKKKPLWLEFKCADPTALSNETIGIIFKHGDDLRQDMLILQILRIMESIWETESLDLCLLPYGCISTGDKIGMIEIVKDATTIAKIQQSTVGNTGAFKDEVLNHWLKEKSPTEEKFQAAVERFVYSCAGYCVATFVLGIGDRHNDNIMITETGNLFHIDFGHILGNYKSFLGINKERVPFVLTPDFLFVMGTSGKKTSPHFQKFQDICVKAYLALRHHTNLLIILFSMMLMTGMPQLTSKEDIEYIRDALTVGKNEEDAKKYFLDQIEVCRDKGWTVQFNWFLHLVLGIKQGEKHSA
# Procedure: as §1, §2, §3, §4
# PI3K (p110a(E545K)/p85a) = target: T5, PI3K (p110a(E545K)/p85a) (Homo sapiens, UniProt P42336, E545K); test: Lipid kinase inhibitory activity, ADP-Glo; assay type: biochemical; settings: α E545K
# T5 construct: purchased Reaction Biology Corporation (RBC)
# T5 sequence (P42336 whole entry E545K): as the sequence (P42336 whole entry E542K) above, with K542E, E545K counted along it
# T5 sequence (P27986 whole entry partner): as the sequence (P27986 whole entry partner) above
# Procedure: as §1, §2, §3, §4
# PI3Kb (p110b/p85a) = target: T6, PI3Kb (p110b/p85a) (Homo sapiens, UniProt P42338); test: Lipid kinase inhibitory activity, ADP-Glo; assay type: biochemical; settings: β
# T6 construct: purchased Reaction Biology Corporation (RBC)
# Procedure: as §1, §2, §3, §4
# MTOR/FRAP1 = target: T7, MTOR/FRAP1 (Homo sapiens, UniProt P42345); test: Lipid kinase inhibitory activity, ADP-Glo; assay type: biochemical
# T7 construct: purchased Reaction Biology Corporation (RBC)
# Procedure: as §1, §2, §3, §4
# PI3Ka (p110a/p85a) = target: T8, PI3Ka (p110a/p85a) (Homo sapiens, UniProt P42336); test: Lipid kinase inhibitory activity, ADP-Glo; assay type: biochemical; settings: α
# T8 construct: purchased Reaction Biology Corporation (RBC)
# T8 sequence (P42336 whole entry): as the sequence (P42336 whole entry E542K) above, with K542E counted along it
# T8 sequence (P27986 whole entry partner): as the sequence (P27986 whole entry partner) above
# Procedure: as §1, §2, §3, §4
SMILES,percent hydrolysis to the parent compound MTPP [1] [%],Stability in gel formulation [2],percent hydrolysis to the parent compound MTPP ([2]; 0 days) [%],percent hydrolysis to the parent compound MTPP ([2]; 5 days) [%],percent hydrolysis to the parent compound MTPP ([2]; 7 days) [%],percent hydrolysis to the parent compound MTPP ([2]; 10 days) [%],IC50 (PI3K (p110a(E542K)/p85a)) [µM],IC50 [3] [µM],IC50 (PI3Kd (p110d/p85a)) [µM],IC50 (PI3Kg (p110g)) [µM],IC50 (PI3K (p110a(E545K)/p85a)) [µM],IC50 (PI3Kb (p110b/p85a)) [µM],IC50 (MTOR/FRAP1) [µM],IC50 (PI3Ka (p110a/p85a)) [µM]
"CCCCCCCCCC(=O)Oc1cccc(-c2nc(N3CCOCC3)c3sccc3n2)c1 [Compound 1.008, 3-(4-Morpholinothieno[3,2-d]pyrimidin-2-yl)phenyl Decanoate]",0.20,very stable,0.00,0.28,0.39,0.56,,,,,,,,
"CC(=O)OCc1cccc(-c2nc(N3CCOCC3)c3sccc3n2)c1 [Compound 1.015, 3-(4-Morpholinothieno[3,2-d]pyrimidin-2-yl)benzyl acetate]",,,,,,,3.69,3.11,0.714,0.131,4.31,5.59,3.32,1.93
"CCCCCCCC/C=C\CCCCCCCC(=O)Oc1cccc(-c2nc(N3CCOCC3)c3sccc3n2)c1 [Compound 1.011, 3-(4-Morpholinothieno[3,2-d]pyrimidin-2-yl)phenyl Oleate]",0.18,very stable,0.09,0.24,0.33,0.43,,,,,,,,
"O=C(/C=C/c1ccccc1)Oc1cccc(-c2nc(N3CCOCC3)c3sccc3n2)c1 [Compound 1.014, 3-(4-Morpholinothieno[3,2-d]pyrimidin-2-yl)phenyl Cinnamate]",1.32,very stable,0.00,2.09,2.43,2.94,,,,,,,,
